{"source": "patent US20120219500A1", "about": "“DIAGNOSTIC AGENT FOR INFECTIOUS DISEASES” (FUJIFILM RI PHARMA CO., LTD., priority 2009, published 2012)", "key": {"[1]": {"system": "Bacteroides fragilis (ATCC25285)", "assay": "in vitro uptake of nitroimidazole derivative under anaerobic environment (absorbance of supernatant)", "format": "cell-based", "conditions": "37° C."}, "E.coli (ATCC25922) [2]": {"system": "E.coli (ATCC25922)", "assay": "in vitro uptake of nitroimidazole derivative under anaerobic environment (absorbance of supernatant)", "format": "cell-based", "conditions": "100 μM metronidazole, 37° C., rate of uptake per 10^8 CFU (FIG. 1)"}, "Bacteroides fragilis": {"system": "Bacteroides fragilis", "assay": "in vitro uptake of radionuclide-labeled nitroimidazole derivatives (gamma counter)", "format": "cell-based", "conditions": "for uptake by obligate anaerobes compared with facultative anaerobes: 26 to 37 KBq radiolabeled derivative, anaerobic, 37° C., rate of uptake per 10^8 CFU (FIGS. 3-6)"}, "[3]": {"system": "attenuated Mycobacterium bovis (BCG, ATCC35734)", "format": "cell-based", "conditions": "anaerobic, 37° C."}, "[4]": {"format": "in vivo"}, "[5]": {"assay": "rat subcutaneous infection model, non-infected skin site", "format": "in vivo", "conditions": "SD rat, i.v. 6.5 hours before blood collection", "description": "An in vivo assay was performed using a rat subcutaneous infection model. As the nitroimidazole derivative, Compound 1 or Compound 2 was used. As the microorganism, two strains of Bacteroides fragilis (ATCC25285, NCTC10581), which is susceptible to metronidazole, or E.coli (ATCC25922), which is not susceptible to metronidazole, was used. A 6-week-old male SD rat was administered with 5×10^9 cfu/0.1 ml bacteria suspended in physiological saline subcutaneously into the left thigh, and then served for evaluation four days later. Approximately 0.74 MBq of Compound 1 or Compound 2 was administered via the vena jugularis externa, and three hours later, blood was collected and tissues were excised. Also, for evaluation of inflammation in the infection model, approximately 0.15 MBq of [^67Ga]gallium citrate (FUJIFILM RI Pharma Co., Ltd.), which is a radioactive diagnostic agent for inflammation, was administered via the vena jugularis externa 6.5 hours before blood collection. […] Radioactivity (cpm) of each of ^67Ga and ^125I was measured in blood, in the infected skin site, and in the non-infection site on the skin. Radioactivity of ^125I was measured after attenuating the radioactivity of ^67Ga. The amount accumulated in each tissue and % ID/g (the ratio of radioactivity per tissue weight relative to the radioactivity administered) were calculated."}, "[6]": {"system": "Bacteroides fragilis (ATCC25285, NCTC10581)", "assay": "rat subcutaneous infection model, infected skin site", "format": "in vivo", "conditions": "SD rat, i.v. 6.5 hours before blood collection", "description": "(§1) An in vivo assay was performed using a rat subcutaneous infection model. As the nitroimidazole derivative, Compound 1 or Compound 2 was used. As the microorganism, two strains of Bacteroides fragilis (ATCC25285, NCTC10581), which is susceptible to metronidazole, or E.coli (ATCC25922), which is not susceptible to metronidazole, was used. A 6-week-old male SD rat was administered with 5×10^9 cfu/0.1 ml bacteria suspended in physiological saline subcutaneously into the left thigh, and then served for evaluation four days later. Approximately 0.74 MBq of Compound 1 or Compound 2 was administered via the vena jugularis externa, and three hours later, blood was collected and tissues were excised. Also, for evaluation of inflammation in the infection model, approximately 0.15 MBq of [^67Ga]gallium citrate (FUJIFILM RI Pharma Co., Ltd.), which is a radioactive diagnostic agent for inflammation, was administered via the vena jugularis externa 6.5 hours before blood collection. The viable bacteria in the infected tissue was confirmed by smearing a part of the infected skin tissue on a medium and culturing it. Radioactivity (cpm) of each of ^67Ga and ^125I was measured in blood, in the infected skin site, and in the non-infection site on the skin. Radioactivity of ^125I was measured after attenuating the radioactivity of ^67Ga. The amount accumulated in each tissue and % ID/g (the ratio of radioactivity per tissue weight relative to the radioactivity administered) were calculated."}, "E.coli (ATCC25922) [7]": {"system": "E.coli (ATCC25922)", "assay": "rat subcutaneous infection model, infected skin site", "format": "in vivo", "conditions": "SD rat, i.v. 6.5 hours before blood collection", "description": "as §1"}, "[8]": {"conditions": "approx. 0.74 MBq i.v., three hours later"}}, "note": "Read-outs that look alike come from different tables or passages of the source."}
{"compound": "Cc1ncc([N+](=O)[O-])n1CCO", "note": "[Metronidazole, metronidazole]", "values": [{"measurement": "uptake by the obligate anaerobe Bacteroides fragilis", "setting": "[1]; 100 μM metronidazole, rate of uptake per 10^8 CFU (FIG. 1)", "result": "taken up in a large amount"}, {"measurement": "uptake by the facultative anaerobe E.coli", "setting": "E.coli (ATCC25922) [2]", "result": "taken up in little amount"}]}
{"compound": "fluorine-18-labeled fluoromisonidazole [[^18F]FMISO]", "values": [{"measurement": "uptake by obligate anaerobes compared with facultative anaerobes", "setting": "Bacteroides fragilis", "result": "taken up in a greater amount by obligate anaerobes than by facultative anaerobes"}]}
{"compound": "O=C(NCCn1ccnc1[N+](=O)[O-])c1cccc(I)c1", "note": "[Compound 2, N1-[2-(2-nitro-1H-1-imidazolyl)ethyl]-3-iodobenzamide]", "values": [{"measurement": "uptake by obligate anaerobes compared with facultative anaerobes", "setting": "Bacteroides fragilis", "result": "taken up in a greater amount by obligate anaerobes than by facultative anaerobes"}, {"measurement": "uptake by BCG compared with E.coli", "setting": "[3]; Compound 2 0.1 mM, rate of uptake per 10^7 CFU (FIG. 9)", "result": "clearly taken up in a greater amount by nitroimidazole derivative susceptible BCG than by non-nitroimidazole derivative susceptible E.coli"}, {"measurement": "amount accumulated in the inflammatory skin site/blood", "setting": "[4]; [8]", "result": "0.73±0.11"}]}
{"compound": "O=[N+]([O-])c1nccn1CC(O)CF", "note": "(centres unmarked) [[^19F]FMISO, fluoromisonidazole]", "values": [{"measurement": "uptake by obligate anaerobes compared with facultative anaerobes", "setting": "[1]; 70 μM [^19F]FMISO, B.fragilis vs E.coli (FIG. 2)", "result": "taken up in a greater amount by obligate anaerobes than by facultative anaerobes"}, {"measurement": "uptake by acid-fast bacteria compared with E.coli", "setting": "[3]; [^19F]FMISO 0.09 mM, E.coli data from Example 1 (FIG. 10)", "result": "taken up in a greater amount by nitroimidazole derivative susceptible Mycobacterium tuberculosis in the resting stage of division than by nitroimidazole derivative non-susceptible E.coli"}]}
{"compound": "[^67Ga] Ga-DOTA-(metronidazole)2 [Compound 3]", "values": [{"measurement": "uptake by obligate anaerobes compared with facultative anaerobes", "setting": "Bacteroides fragilis", "result": "taken up in a greater amount by obligate anaerobes than by facultative anaerobes"}, {"measurement": "rate of uptake versus number of viable obligate anaerobes", "setting": "Bacteroides fragilis; 37° C. for 120 minutes, 0.43×10^8 to 6.75×10^8 CFU/mL viable Bacteroides fragilis (FIG. 7)", "result": "increased in a manner correlated with the number of viable obligate anaerobes"}]}
{"compound": "O=C([O-])CC(O)(CC(=O)[O-])C(=O)[O-].[67Ga+3]", "note": "[[^67Ga]gallium citrate]", "values": [{"measurement": "amount accumulated in the non-infected skin site/blood", "setting": "[5]", "result": "0.41±0.06"}, {"measurement": "amount accumulated in the infected skin site/blood", "setting": "[6]; Bacteroides fragilis (ATCC25285)", "result": "1.75 ±0.2"}, {"measurement": "amount accumulated in the infected skin site/blood", "setting": "[6]; Bacteroides fragilis (NCTC10581)", "result": "1.89±0.4"}, {"measurement": "amount accumulated in the infected skin site/blood", "setting": "E.coli (ATCC25922) [7]", "result": "1.73±0.7"}, {"measurement": "amount accumulated in the inflammatory skin site/blood", "setting": "[4]; rat, in vivo, iv", "result": "1.61±0.16"}]}
{"compound": "Cc1ncc([N+](=O)[O-])n1CCNC(=O)c1cccc(I)c1", "note": "[Compound 1, [^125I]N1-[2-(2-methyl-5-nitro-1H-1-imidazolyl)ethyl]-3-iodobenzamide]", "values": [{"measurement": "uptake by obligate anaerobes compared with facultative anaerobes", "setting": "Bacteroides fragilis", "result": "taken up in a greater amount by obligate anaerobes than by facultative anaerobes"}, {"measurement": "amount accumulated in the inflammatory skin site/blood", "setting": "[4]; [8]", "result": "0.85±0.25"}]}
